System: retinal pigment epithelial (RPE) cells
Assay: RPE exosome release
Type: cell-based
Details: RPE cells incubated in media (DMEM) plus L-DOPA versus media alone (FIG. 3A)
Excerpt: Exosomes released from retinal pigment epithelial (RPE) cells can be isolated. […] Cells and cell debris are removed and exosomes are then purified. Note the present invention is not limited to this particular method of exosome isolation. In certain embodiments of the present invention, exosomes are not isolated for the measurement of levels of exosomes released from RPE cells. […] FIG. 3B illustrates GPR143 exosome release and its inhibition by L-DOPA. FIG. 4A and FIG. 4B show RPE exosome release studies in response to 30 minute treatments with 1 μM dopamine (FIG. 4A), 1 nM Dopamine 2 receptor (D2R) agonist (bromocriptine, FIG. 4B), and 1 nM Dopamine 2 receptor ([…]) antagonist (raclopride, FIG. 4B).

**Q.** With `N[C@@H](Cc1ccc(O)c(O)c1)C(=O)O` [L-DOPA] as the compound, how does the “exosome release from RPE cells” value read?
**A.** Its value is “significant reduction in exosome release”.

— US11927590B2, “Methods and systems for screening therapeutic compositions for treating age-related macular degeneration” (ARIZONA BOARD OF REGENTS ON BEHALF OF THE UNIVERSITY OF …, priority 2020, dated 2024)
